Test results published in article PMC10829696, “Identification, expression profiles, and binding properties of chemosensory protein 18 in Plutella xylostella (Lepidoptera: Plutellidae)” (Journal of Insect Science, 2024).
pIC50, pKd, pKi: −log10 of the molar value. Where two headings read alike, the source gives them in different places.

What was measured:
PxylCSP18 [1] = target: T1, PxylCSP18 (Plutella xylostella, UniProt A0ABQ7Q8H2, Q80P); test: Titration of PxylCSP18 with fluorescent probe 1-NPN (Scatchard plot); format: binding; settings: 1 µM protein in 20 mM Tris–HCl pH 7.4, 1-NPN 1 to 17 µM, Scatchard plots; read-out: dissociation constant (K1-NPN)
Method: The fluorescence competitive binding assays were performed as described previously ([Fu et al. 2020], [Hua et al. 2021]) with some modifications. Briefly, the emission spectra of the fluorescent probe, N-phenyl-1-naphthylamine (1-NPN, Sigma-Aldrich, USA), were recorded from 350 to 600 nm with 5 nm width of the emission slits and the excitation wavelength was 337 nm. To measure the affinity of 1-NPN to PxylCSP18, 1 µM protein in 20 mM Tris–HCl buffer (pH 7.4) was titrated with 1-NPN to final concentrations ranging from 1 to 17 µM in 1 cm light path quartz cuvette. After incubation for 3 min, the fluorescence intensity for each test was detected on an RF-5301 fluorescence spectrophotometer (Shimadzu, Japan). The average data of the recorded fluorescence intensity at the maximum emission wavelength were linearized using the Scatchard equation, and the dissociation constants for 1-NPN were then calculated ([Sideris et al. 1992], [Hua et al. 2021]). Sixteen ligands, including 3 sex pheromone components ((Z)-11-hexadecenal, (Z)-11-hexadecenyl acetate, and (Z)-11-hexadecenyl alcolol) and some host volatiles (terpene, ketone, aldehyde, alcohol, and ester volatiles), were detected the affinities of PxylCSP18. The final concentrations for each ligand ranging from 1 to 17 µM were added into the mixed solution of 1-NPN probe (1 µM) and PxylCSP18 (1 µM). […]

PxylCSP18 [2] = target: T1, PxylCSP18; test: Fluorescence competitive binding assays with 1-NPN as probe; settings: for pKi: Ki = [IC50]/(1 + [1-NPN]/K1-NPN)
Method: The coding region of mature PxylCSP18 was cloned from the synthesized cDNA with the specific primers, in which an EcoR V and an Xho I restriction sites were introduced (Table 1). The amplified product was cloned into the pET-32a vector (Novagen, USA), followed by transformation into the competent E. coli BL21 (DE3) (Tiangen, China). The expression of PxylCSP18 in the bacteria was induced by 0.6 mM isopropyl-beta-D-thiogalactopyranoside (IPTG) overnight. Subsequently, the bacterial cells were collected through centrifugation and resuspended into phosphate-buffered saline (PBS) solution, then homogenized through sonication on ice using an ultrasonic processor (Sonics Vibra-Cell, USA). PxylCSP18 was purified from the soluble faction using a Ni^2+-NTA column (Roche, Switzerland) through a stepwise elution with 20, 50, 100, 150, and 500 mM imidazole in PBS. […] Finally, the PxylCSP18 was concentrated through ultrafiltration using a centrifugal device (3 kDa, Merck Millipore, USA), and the concentration was determined using the BCA Protein Assay Kit (Sangon, China). The purified recombinant PxylCSP18 was verified by peptide mass fingerprinting (Sangon Biotech, China).
Briefly, the emission spectra of the fluorescent probe, N-phenyl-1-naphthylamine (1-NPN, Sigma-Aldrich, USA), were recorded from 350 to 600 nm with 5 nm width of the emission slits and the excitation wavelength was 337 nm. […] Sixteen ligands, including 3 sex pheromone components ((Z)-11-hexadecenal, (Z)-11-hexadecenyl acetate, and (Z)-11-hexadecenyl alcolol) and some host volatiles (terpene, ketone, aldehyde, alcohol, and ester volatiles), were detected the affinities of PxylCSP18. […] The acquired data were calculated from the Scatchard plots for dissociation constants (Kd) and the curves, assuming PxylCSP18 was active completely and bound to the ligands in a 1:1 ratio at saturation.

PxylCSP11 = system: PxylCSP11; parameters: method as in Fu et al. 2020; settings: ref Fu et al. 2020; cited from earlier work
P. xylostella adults = test: Y-tube olfactometer bioassays after RNAi knockdown of PxylCSP18; format: in vivo, Plutella xylostella; settings: day-2 unmated, 10 μg/μl in paraffin oil, dsCSP18 vs dsGFP
Method: The pupae the day before eclosion were collected and used for RNA interference. The pupae were anesthetized on ice and then injected with 1 μl of dsRNA (10 μg/μl) at the dorsal site of the abdomen using a Nanoject III micro-injector (Drummond Scientific, Broomall, PA) equipped with glass capillaries prepared using a P-97 micropipette puller (Sutter Instrument Co., Novato, CA). The antennae of day-2 unmated female and male adults were collected to detect the efficiency of RNAi-mediated knockdown of PxylCSP18 through […]. Three independent biological replicates were performed.
The responses of the day-2 unmated female and male adults to the volatile compounds were performed using a glass Y-tube olfactometer with a central glass tube (5 cm long × 2.5 cm ID) and 2 lateral glass arms (15 cm long × 2.5 cm ID) with a 75° inside angle as described previously ([Yan et al. 2023]), with some modifications. Before bioassays, all glasswares were cleaned and washed with absolute alcohol and dried at 100 °C for 5 min. A moistened and activated charcoal-filtered airflow (350 mL/min) was pumped into each source container using an atmospheric sampling instrument (QC-1S, Beijing Institute of Labor Protection Science, Beijing, China). The behavioral response of male and female adults of P. xylostella to trans-2-hexen-1-ol, isopropyl isothiocyanate, myrcene, linalool were then observed. Each component was diluted with paraffin oil to 10 μg/μl. For each chemical, an aliquot of 10 μl was applied to a strip of filter paper (0.5 × 5 cm) and placed in 1 source container. A filter paper strip loaded with the same volume of paraffin oil and placed in the second source container was used as a control. Each test male or female moth was released at the entrance of the central glass tube of the Y-tube olfactometer and observed for 5 min. […] The positions of the arms were reversed after 5 insects to avoid positional bias. The experimental device was cleaned after every 10 insects by washing it with absolute acetone and followed by heating at 100 °C for 5 min. Each concentration of compound stimulus was tested with 30 insects, which successfully made a “choice.” The choice index was calculated as the number of responses of moths to […] divided by the total number of test moths.

P. xylostella = settings: ref Song et al. 2022; cited from earlier work
PxylCSP1 = system: PxylCSP1; parameters: method as in Liu et al. 2010; settings: ref Liu et al. 2010; cited from earlier work
[3] = 1-NPN 1 µM, PxylCSP18 1 µM, ligand 1 to 17 µM, concentration of ligand halving the initial fluorescence, N.D. = no significant binding detected, read-out: IC50
[4] = 1-NPN 1 µM, PxylCSP18 1 µM, N.D. = no significant binding detected
[5] = 1-NPN 1 µM, PxylCSP18 1 µM, ligand 1 to 17 µM

T1 sequence (A0ABQ7Q8H2 entry or part of it Q80P): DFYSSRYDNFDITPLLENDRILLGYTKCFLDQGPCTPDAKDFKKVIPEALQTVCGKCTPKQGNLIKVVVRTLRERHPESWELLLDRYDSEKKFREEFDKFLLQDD

c1ccc(Nc2cccc3ccccc23)cc1 [1-NPN, N-phenyl-1-naphthylamine]
pKd (PxylCSP18 [1]): 5.01

CCCCCCCCC=O [1-Nonanal]
pIC50 (PxylCSP18 [2]): 5.10

C=CC(O)CC (stereo not drawn) [1-Penten-3-ol]
pIC50 (PxylCSP18 [2]): 5.14

CCCC(C)CC(C)C (stereo not drawn) [2,4-dimethylheptane]
affinity of PxylCSP11 (PxylCSP11): good affinities

CCC/C=C/CO [(E)-2-Hexenal-1-ol]
attractive effects to P. xylostella female adults after knocked down the expression of PxylCSP18 (P. xylostella adults): decreased inconspicuously | attractive effects to P. xylostella male adults after knocked down the expression of PxylCSP18 (P. xylostella adults): significantly decreased | pIC50 (PxylCSP18 [2]; [3]): 5.12 | pKi (PxylCSP18 [2]; [4]): 5.21

CC/C=C\CCOC(C)=O [(Z)-3-Hexenyl acetate]
pIC50 (PxylCSP18 [2]): 5.04

CCCC/C=C\CCCCCCCCCC=O [(Z)-11-hexadecenal]
binding affinity of PxylCSP18 to ligand (in words) (PxylCSP18 [2]; [5]): no significant binding affinity

CCCC/C=C\CCCCCCCCCCOC(C)=O [(Z)-11-hexadecenyl acetate]
affinity of PxylCSP11 (PxylCSP11): good affinities | binding affinity of PxylCSP18 to ligand (in words) (PxylCSP18 [2]; [5]): no significant binding affinity

CCCC/C=C\CCCCCCCCCCO [(Z)-11-hexadecenyl alcolol]
binding affinity of PxylCSP18 to ligand (in words) (PxylCSP18 [2]; [5]): no significant binding affinity

C=CCN=C=S [Allyl isothiocyanate]
affinity of PxylCSP11 (PxylCSP11): good affinities | pIC50 (PxylCSP18 [2]): 5.14

CCCCN=C=S [Buty1 isothiocyanate]
pIC50 (PxylCSP18 [2]): 5.05

CCCCCC=O [Caproldehyde]
pIC50 (PxylCSP18 [2]; [3]): 5.13 | pKi (PxylCSP18 [2]; [4]): 5.22

CC(C)N=C=S [Isopropyl isothiocyanate]
attractive effects to P. xylostella female adults after knocked down the expression of PxylCSP18 (P. xylostella adults): significantly weakened | attractive effects to P. xylostella male adults after knocked down the expression of PxylCSP18 (P. xylostella adults): significantly decreased | pIC50 (PxylCSP18 [2]): 5.09

C=C(C)[C@H]1CC=C(C)CC1 [Limonene]
pIC50 (PxylCSP18 [2]; [3]): 5.73 | pKi (PxylCSP18 [2]; [4]): 5.83

C=CC(C)(O)CCC=C(C)C (stereo not drawn) [Linalool]
repellent effects to P. xylostella female adults after knocked down the expression of PxylCSP18 (P. xylostella adults): significantly weakened | repellent effects to P. xylostella male adults after knocked down the expression of PxylCSP18 (P. xylostella adults): decreased inconspicuously | pIC50 (PxylCSP18 [2]): 5.12

C=CC(=C)CCC=C(C)C [Myrcene]
repellent effects to P. xylostella female adults after knocked down the expression of PxylCSP18 (P. xylostella adults): decreased inconspicuously | repellent effects to P. xylostella male adults after knocked down the expression of PxylCSP18 (P. xylostella adults): decreased inconspicuously | pIC50 (PxylCSP18 [2]): 5.87 | behavioural effect on P. xylostella (P. xylostella): repellent

CC1(C)[C@H]2O[C@H]2[C@H]2[C@](C)(O)[C@@H]3CC[C@@H]4[C@@H](O)[C@@]3(C[C@@H](O)[C@@]21O)C[C@@]4(C)O [Rhodojaponin-III]
ability of PxylCSP1 to bind (PxylCSP1): remarkable ability to bind

OCCc1ccccc1 [phenethyl alcohol]
affinity of PxylCSP11 (PxylCSP11): good affinities

S=C=NCCc1ccccc1 [phenethyl isothiocyanate]
affinity of PxylCSP11 (PxylCSP11): good affinities

CC(=O)/C=C/C1C(C)=CCCC1(C)C (stereo not drawn) [α-Ionone]
pIC50 (PxylCSP18 [2]): 5.38

CC1=CC=C(C(C)C)CC1 [α-Terpinene]
affinity of PxylCSP11 (PxylCSP11): good affinities | pIC50 (PxylCSP18 [2]): 5.89

CC1=CC[C@@H](C(C)(C)O)CC1 [α-terpineol]
affinity of PxylCSP11 (PxylCSP11): good affinities

CC1=CCC(C(C)C)=CC1 [γ-Terpinene]
pIC50 (PxylCSP18 [2]): 5.92 | behavioural effect on P. xylostella (P. xylostella): repellent
